What was measured:
[1] = biological target: hMC4-R (Homo sapiens, UniProt P32245); test: Competitive inhibition binding assay using [I125]-NDP-α-MSH, hMC4-R (HEK-293 membranes); conditions: read-out: Ki (nM) MC4-R; HEK-293 cells transfected with hMC4-R
[2] = ICV feeding study in rats; format: in vivo; conditions: rat, 21 hours
Method: (§1) Change in food intake and body weight is evaluated for selected peptides. Rats with indwelling intracerebroventricular cannulas (ICV rats) are obtained from Hilltop Lab Animals, Inc. (Scottdale, Pa.). Animals are individually housed in conventional plexiglass hanging cages and maintained on a controlled 12 hour on/off light cycle. Water and powdered (LabDiet, 5P00 Prolab RMH 3000) or pelleted (Harlan Teklad 2018 18% Protein Rodent Diet) food is provided ad libitum. For 1 week before treatment, 24-hour food intake and body weight change is recorded to assess a baseline for the group during vehicle treatment. The rats are dosed ICV with vehicle or selected peptides (0.1-3 nmol). The changes in body weight and food intake for the 24 hour period after dosing are determined. The changes in body weight and food intake for the 48 hour and 72 hour periods after dosing are also measured to determine reversal of changes in body weight and food intake effects back to baseline levels.
All animals were dosed on the first day with saline ICV, and given a pre-weighed food bowl with food weight recorded at 2 and 21 hours post-ICV injection. On day 2, animals were randomized based on the 21 hour food consumption, with animals eliminated due to low food consumption or food spills. […] Food weights were again recorded at 2, 4, 21 and 24 hours post-ICV injection. In some instances, multiple different tests were conducted with each group containing between 8 and 12 members; the average value is given.

[3] = biological target: T1, hMC3-R (Homo sapiens, UniProt P41968); test: Competitive inhibition binding assay using [I125]-NDP-α-MSH, hMC3-R (HEK-293 membranes); conditions: read-out: Ki (nM) MC3-R; HEK-293 cells transfected with hMC3-R
T1 sequence (P41968 whole entry): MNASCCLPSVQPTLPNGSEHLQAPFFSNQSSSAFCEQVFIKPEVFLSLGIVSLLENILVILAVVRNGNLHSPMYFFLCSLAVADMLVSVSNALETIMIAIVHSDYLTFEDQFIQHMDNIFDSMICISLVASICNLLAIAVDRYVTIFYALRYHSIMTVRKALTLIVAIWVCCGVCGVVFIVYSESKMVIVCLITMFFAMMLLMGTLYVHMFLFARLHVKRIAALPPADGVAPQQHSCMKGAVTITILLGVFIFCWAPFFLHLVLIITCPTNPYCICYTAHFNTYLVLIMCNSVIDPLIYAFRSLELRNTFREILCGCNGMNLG

[4] = biological target: T2, MC1-R (Mus musculus, UniProt Q01727); test: Competitive inhibition binding assay using [I125]-NDP-α-MSH, MC1-R (B-16 mouse melanoma cell membranes); conditions: read-out: Ki (nM) MC1-R; B-16 mouse melanoma cells
T2 sequence (Q01727 whole entry): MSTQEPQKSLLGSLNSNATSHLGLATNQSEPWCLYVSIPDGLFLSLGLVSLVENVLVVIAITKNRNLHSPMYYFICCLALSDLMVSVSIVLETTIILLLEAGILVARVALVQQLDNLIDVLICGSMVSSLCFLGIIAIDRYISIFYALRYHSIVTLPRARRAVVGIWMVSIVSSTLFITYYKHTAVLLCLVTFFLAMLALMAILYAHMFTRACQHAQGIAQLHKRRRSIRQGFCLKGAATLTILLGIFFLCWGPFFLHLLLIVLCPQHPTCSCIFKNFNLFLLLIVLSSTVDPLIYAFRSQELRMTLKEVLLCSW

[5] = biological target: T2, MC1-R; test: cAMP functional assay, MC1-R (B-16 mouse melanoma cells); format: cell-based; conditions: read-out: EC50 as to MC1-R
[6] = biological target: T1, hMC3-R; test: cAMP functional assay, hMC3-R (HEK-293 cells); format: cell-based; parameters: expressed in transfected cells; host or cells: HEK-293
[7] = IV feeding study in male Sprague-Dawley rats; format: in vivo, rat; conditions: 1 mg/kg, 24 hour period
Method: as §1, with “peptides. Male Sprague-Dawley rats” for “peptides. Rats with indwelling intracerebroventricular cannulas (ICV rats)”, “from Taconic (Germantown, N.Y.).” for “from Hilltop Lab Animals, Inc. (Scottdale, Pa.).”, “dosed IV or IP” for “dosed ICV”, “peptides (0.5-3 mg/kg).” for “peptides (0.1-3 nmol).”, “to determined” for “to determine”
Briefly, male Sprague-Dawley rats (300-350 g) were individually housed in shoe box cages with a 12 hour light/dark period. Food intake and body weights were monitored for 24 hours prior to the start of the study. Rats were randomized by body weight and then dosed just before lights-off with the compound of Example 11 or the same volume of vehicle. A pre-weighed amount of food was provided and food intake was determined at 2, 4, 20 and 24 hours.

Sequence of hMC4-R (P32245 whole entry): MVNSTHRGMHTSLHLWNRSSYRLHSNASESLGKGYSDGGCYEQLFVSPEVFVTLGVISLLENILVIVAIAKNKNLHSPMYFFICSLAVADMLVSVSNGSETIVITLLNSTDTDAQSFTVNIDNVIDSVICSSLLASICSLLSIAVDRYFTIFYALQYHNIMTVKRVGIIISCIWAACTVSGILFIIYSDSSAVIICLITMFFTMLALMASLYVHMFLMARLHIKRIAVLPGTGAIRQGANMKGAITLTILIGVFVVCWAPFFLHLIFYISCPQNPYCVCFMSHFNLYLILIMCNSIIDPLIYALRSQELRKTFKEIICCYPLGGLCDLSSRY

Ki [1]: 0.03 nM
Ki [3]: 2 nM
Ki [4]: 5680 nM
EC50 [5]: > 1000 nM
agonist/antagonist status as to MC3-R [6]: inactive
Substance: Ac-cyclo(-Asp-Trp-D-Nal 2-Arg-Nal 2-Lys)-NH2 [Example 11]
average increase in food intake ([2]; 0.1 nmol): 4%
average increase in food intake ([2]; 0.3 nmol): 18%
average increase in food intake ([2]; 1.0 nmol): 20%
increase in food intake [7]: 8%
